In patent publication US20220411473A1, “LYSIN-ANTIMICROBIAL PEPTIDE (AMP) POLYPEPTIDE CONSTRUCTS, LYSINS, ISOLATED POLYNUCLEOTIDES ENCODING SAME AND USES THEREOF” (priority 2019, published 2022):
Like-named read-outs stand apart in the source and are kept apart here.

Legend:
[1] = test system: carbapenem-resistant P. aeruginosa strains; type: cell-based, Pseudomonas aeruginosa; conditions: for susceptibility category, antibiotic alone: Table 22, WC-452; for susceptibility category, antibiotic alone: key: (R) = resistant; (S) = sensitive; for susceptibility category, imipenem alone: key: (R) = resistant; (S) = sensitive; for susceptibility category, imipenem in combination with GN121: key: (R) = resistant; (S) = sensitive; for susceptibility category, imipenem in combination with GN123: key: (R) = resistant; (S) = sensitive; for susceptibility category, meropenem alone: key: (R) = resistant; (S) = sensitive; for susceptibility category, meropenem in combination with GN123: key: (R) = resistant; (S) = sensitive
Description: Such resensitization may be determined by combining the present lysins or lysin-AMP polypeptide constructs with an antibiotic in a checkerboard assay as described herein. Antibiotic-resistant bacteria, such as carbapenem-resistant P. aeruginosa, are added to the lysin or lysin-AMP polypeptide construct combination. […] See Clinical and Laboratory Standards Institute (CLSI), CLSI. […] M100 Performance Standards for Antimicrobial Susceptibility Testing; 29th Edition. Clinical and Laboratory Standards Institute, Wayne, Pa., which is herein incorporated by reference in its entirety.
Up to seven carbapenem-resistant isolates were assessed. […] See Clinical and Laboratory Standards Institute (CLSI), CLSI. […] M100 Performance Standards for Antimicrobial Susceptibility Testing; 29th Edition. Clinical and Laboratory Standards Institute, Wayne, Pa.

Staphylococcus aureus = experiment: Daptomycin MIC in […] (positive control); type: cell-based; conditions: S. aureus
Description: As a positive control, the impact of […] ® on daptomycin (DAP) activity against Staphylococcus aureus was also tested.

[2] = Table 18, isolates PA19-PA24 and WC-452
[3] = Table 19, isolates PA19-PA24 and WC-452

For `C[C@@H](O)[C@H]1C(=O)N2C(C(=O)O)=C(SCCN=CN)C[C@H]12` [Imipenem, imipenem], the “susceptibility category, imipenem alone” value [1, 2] was “R”, the “susceptibility category, imipenem in combination with GN123” value [1, 2] was “(S)” and the “susceptibility category, imipenem alone” value ([1]; Table 20, isolates PA19-PA24) was “R”. The “susceptibility category, imipenem in combination with GN121” value ([1]; Table 20, isolates PA19-PA24) was “(S)”, the “susceptibility category, antibiotic alone” value [1] was “R” and the “MIC Combination” value ([1]; isolate PA19, imipenem + GN121) was 1 µg/mL. The “MIC Combination” value ([1]; isolate PA19, imipenem + GN123) was 0.5 µg/mL, the “MIC Combination” value ([1]; isolate PA20, imipenem + GN121) was 0.5 µg/mL and the “MIC Combination” value ([1]; isolate PA20, imipenem + GN123) was 1 µg/mL. For the same compound, the “MIC Combination” value ([1]; isolate PA21, imipenem + GN121) was 1 µg/mL, the “MIC Combination” value ([1]; isolate PA21, imipenem + GN123) was 0.5 µg/mL and the “MIC Combination” value ([1]; isolate PA22, imipenem + GN121) was 2 µg/mL. The “MIC Combination” value ([1]; isolate PA22, imipenem + GN123) was 2 µg/mL, the “MIC Combination” value ([1]; isolate PA23, imipenem + GN123) was 0.25 µg/mL and the “MIC Combination” value ([1]; isolate PA24, imipenem + GN121) was 1 µg/mL. The “MIC Combination” value ([1]; isolate PA24, imipenem + GN123) was 2 µg/mL and the “MIC Combination” value ([1]; isolate WC-452, imipenem + GN123) was 1 µg/mL.

For `C[C@@H](O)[C@H]1C(=O)N2C(C(=O)O)=C(S[C@@H]3CN[C@H](C(=O)N(C)C)C3)[C@H](C)[C@H]12` [Meropenem, meropenem], the “susceptibility category, meropenem alone” value [1, 3] was “R”, the “susceptibility category, meropenem in combination with GN123” value [1, 3] was “(S)” and the “susceptibility category, meropenem alone” value ([1]; Table 21, isolates PA19-PA24 and WC-452) was “R”. The “susceptibility category, antibiotic alone” value [1] was “R”, the “MIC Combination” value ([1]; isolate PA19, meropenem + GN121) was 1 µg/mL and the “MIC Combination” value ([1]; isolate PA19, meropenem + GN123) was 0.5 µg/mL. The “MIC Combination” value ([1]; isolate PA20, meropenem + GN121) was 1 µg/mL, the “MIC Combination” value ([1]; isolate PA20, meropenem + GN123) was 0.5 µg/mL and the “MIC Combination” value ([1]; isolate PA21, meropenem + GN121) was 2 µg/mL. The “MIC Combination” value ([1]; isolate PA21, meropenem + GN123) was 1 µg/mL, the “MIC Combination” value ([1]; isolate PA22, meropenem + GN121) was 1 µg/mL and the “MIC Combination” value ([1]; isolate PA22, meropenem + GN123) was 1 µg/mL. The “MIC Combination” value ([1]; isolate PA23, meropenem + GN121) was 2 µg/mL, the “MIC Combination” value ([1]; isolate PA23, meropenem + GN123) was 0.5 µg/mL and the “MIC Combination” value ([1]; isolate PA24, meropenem + GN121) was 1 µg/mL. For the same compound, the “MIC Combination” value ([1]; isolate PA24, meropenem + GN123) was 2 µg/mL, the “MIC Combination” value ([1]; isolate WC-452, meropenem + GN121) was 1 µg/mL and the “MIC Combination” value ([1]; isolate WC-452, meropenem + GN123) was 1 µg/mL.

daptomycin was tested, and the “fold increase in MIC” value (Staphylococcus aureus; 0.09% SURVANTA) was 32 fold, the “fold increase in MIC” value (Staphylococcus aureus; 0.19% SURVANTA) was 32 fold and the “fold increase in MIC” value (Staphylococcus aureus; 1.56% SURVANTA) was 128 fold. The “fold increase in MIC” value (Staphylococcus aureus; 3.15% SURVANTA) was 128 fold.
